# Assays:
# [1] = Lipophilicity, shake-flask log D7.4 (1-octanol/PBS); format: physicochemical; details: 1-octanol/PBS pH 7.4, n = 4
# Experimental: Lipophilicity was determined with the shake-flask method as a distribution coefficient between 0.01 M PBS and octanol. Purified radiotracer [^18F]6 (10 μL, ∼200 kBq, 1.5 nmol), [^18F]14 (20 μL, ∼260 kBq, 125 pmol), or [^18F]15 (20 μL, 144 kBq, 67 pmol) in a polypropylene tube containing 1500–2000 μL of each in a 1:1 mixture (1-octanol, 0.02 M PBS, pH 7.4) was shaken mechanically (500 rpm, 10 min) and centrifuged (1000g, 5 min), and samples from each layer (400 μL, n = 4) were measured with a γ-counter. The log D7.4 was calculated as a distribution between the two layers at pH 7.4. [^18F]6 (10 MBq, 40 nmol) diluted with 0.01 M PBS at pH 7.4 (≤1% ethanol, 5300 μL) was incubated for 180 min. At selected time points (5, 30, 60, 90, 120, 150, and 180 min), a sample (100 μL) was injected to radio-HPLC. [^18F]14 and [^18F]15 (29 MBq, 10 nmol) diluted in 2000 μL of 0.01 M PBS (≤1% ethanol) were left to incubate. A sample of [^18F]14 (100 μL) after 9 hours and [^18F]15 at selected time points between 30 and 335 min were injected into HPLC (method A). [^18F]15 (0.6 MBq, 0.134 nmol, 200 μL) formulated in ≤5% EtOH-1 × PBS was added and incubated in 2000 μL of PBS-50% human plasma at 37 °C. A 100 μL sample (at 60, 120, 180, and 240 min, n = 2) was diluted with 200 μL of cold acetonitrile and centrifuged (10,000g, 5 min). After centrifugation, a 100 μL sample of the supernatant was injected for radio-HPLC analysis. […]
# Lipophilicity. The lipophilicities were determined with the shake-flask method as a distribution profile between 0.01 M PBS and octanol at pH 7.4. The distribution of the radiolabeled compound between the octanol and the PBS layers was calculated according
# [2] = Hydrolytic stability in 0.01 M PBS / formulated solution (radio-HPLC); format: physicochemical; details: 4% ethanol-0.01 M PBS (pH 7.4)
# Experimental: Lipophilicity was determined with the shake-flask method as a distribution coefficient between 0.01 M PBS and octanol. Purified radiotracer [^18F]6 (10 μL, ∼200 kBq, 1.5 nmol), [^18F]14 (20 μL, ∼260 kBq, 125 pmol), or [^18F]15 (20 μL, 144 kBq, 67 pmol) in a polypropylene tube containing 1500–2000 μL of each in a 1:1 mixture (1-octanol, 0.02 M PBS, pH 7.4) was shaken mechanically (500 rpm, 10 min) and centrifuged (1000g, 5 min), and samples from each layer (400 μL, n = 4) were measured with a γ-counter. The log D7.4 was calculated as a distribution between the two layers at pH 7.4. [^18F]6 (10 MBq, 40 nmol) diluted with 0.01 M PBS at pH 7.4 (≤1% ethanol, 5300 μL) was incubated for 180 min. At selected time points (5, 30, 60, 90, 120, 150, and 180 min), a sample (100 μL) was injected to radio-HPLC. [^18F]14 and [^18F]15 (29 MBq, 10 nmol) diluted in 2000 μL of 0.01 M PBS (≤1% ethanol) were left to incubate. A sample of [^18F]14 (100 μL) after 9 hours and [^18F]15 at selected time points between 30 and 335 min were injected into HPLC (method A). [^18F]15 (0.6 MBq, 0.134 nmol, 200 μL) formulated in ≤5% EtOH-1 × PBS was added and incubated in 2000 μL of PBS-50% human plasma at 37 °C. A 100 μL sample (at 60, 120, 180, and 240 min, n = 2) was diluted with 200 μL of cold acetonitrile and centrifuged (10,000g, 5 min). After centrifugation, a 100 μL sample of the supernatant was injected for radio-HPLC analysis.
# [3] = tested on: SSTR2-expressing rat pancreatic adenocarcinoma AR42J cells; experiment: Cell uptake assay; format: cell-based; details: 120 min; for cell uptake, baseline: n = 3, % internalized; for cell uptake, blocking: n = 3, coincubation with excess octreotide
# Experimental: AR42J cells were grown to >90% confluence. One million cells/well were seeded overnight on 6-well plates. The growth media was removed, and the reaction media (1 mL) containing [^18F]14 (11 kBq, 10 pmol per well) or [^18F]15 (97 kBq, 40 pmol per well) was added. Additionally, cells were coincubated with 2.4 nmol per well of nonmodified octreotide for blocking of radiotracer uptake. Radioactivity in the free, membrane-bound, and internalized fractions was determined at designated time points (15, 30, 60, and 120 min) by treating the cells in a sequence of (1) ice-cold 0.01 M PBS, (2) glycine buffer, and (3) 1 M NaOH, respectively. The fractions were collected and measured with a γ-counter. The detailed protocol is given in the Supporting Information. […]
# where Acoct=radioactivity concentration of octanol and AcPBS=radioactivity concentration of PBS. The datapoints were presented as mean ± standard deviation.
# AR42J cell-uptake assay and mouse tumor model. Rat pancreatic tumor cell line AR42J that expresses SSTR2, was cultured at 37 °C in 95% relative humidity incubator containing 5% CO2. Cells grown to >90% confluence were used for either in vitro or in vivo experiments.
# One million cells/well were seeded overnight on 6-well plates. The growth media was removed and the medium (1 mL/well) containing [18F]14 (11 kBq, 10 pmol per well) or [18F]15 (97 kBq, 40 pmol per well) was added. For studying the specificity of the cell -uptake, a set of cells were co-incubated in the presence of 2.4 nmol per well of non -modified octreotide representative of blocking conditions (total volume ~1 mL). For determining the amount of the radiotracer in the free fraction, at the designated time-points (15, 30, 60 and 120 min) the incubated media were removed, collected to a 5 mL scintillation tube, cells were washed with 1 mL of cold 0.01 M PBS (1×PBS) and again the supernatant collected into the same scintillation tube. Membrane-bound fraction; ice-cold glycine buffer (1 mL) was added on the cells, incubated for 5 minutes on ice, supernatant removed (procedure repeated once more) and the cells washed with ice -cold 1×PBS, and all washing solutions were collected to the same scintillation tube. Internalized fraction; 1 M NaOH (1 mL) was added on the cells and left incubating at an ambient temperature for 10 min. The supernatant was removed, the wells were washed 2 × 1 mL of cold 0.01 M PBS, and the supernatants collected to the same microtube. The collected samples were measured with a gamma counter for measuring the counts per minute (CPM) of each fraction (n = 3). The internalization is presented in percent (%) normalized to the total radioactivity in all three
Compound,log D7.4 [1],logD [1],stability in the formulated solution ([2]; several time points up to 6 h),"cell uptake, baseline [3] [%]","cell uptake, blocking [3] [%]",stability in the formulated solution ([2]; sampled at 9 h)
C[C@@H](O)[C@@H]1NC(=O)[C@H](CCCCN)NC(=O)[C@@H](Cc2c[nH]c3ccccc23)NC(=O)[C@H](Cc2ccc(O)cc2)NC(=O)[C@@H](NC(=O)[C@@H](Cc2ccccc2)NC(=O)CCOCCOCCOCCOCCON=Cc2ccc(C(=O)NCCOCCOCCOCCNC(=O)OC3CCCc4cnnc(-c5ccc(CC(=O)NCC[N+](C)(C)C[B-](F)(F)F)cc5)c4CC3)cc2)CSSC[C@@H](C(=O)N[C@H](CO)[C@@H](C)O)NC1=O (stereo partly drawn) [[^18F]15],−0.73 ± 0.12,-0.7 ± 0.1,stable,6.1 ± 0.6,0.7 ± 0.1,
C[C@@H](O)[C@@H]1NC(=O)[C@H](CCCCN)NC(=O)[C@@H](Cc2c[nH]c3ccccc23)NC(=O)[C@H](Cc2ccc(O)cc2)NC(=O)[C@@H](NC(=O)[C@@H](Cc2ccccc2)NC(=O)CCOCCOCCOCCOCCON=Cc2ccc(CNC(=O)OC3CCCc4cnnc(-c5ccc(CC(=O)NCC[N+](C)(C)C[B-](F)(F)F)cc5)c4CC3)cc2)CSSC[C@@H](C(=O)N[C@H](CO)[C@@H](C)O)NC1=O (stereo partly drawn) [[^18F]14],,-0.58 ± 0.06,,1.0 ± 0.2,0.5 ± 0.1,stable

# — publication PMC9305971, “Development of [^18F]AmBF3 Tetrazine for Radiolabeling of Peptides: Preclinical Evaluation and PET Imaging of [^18F]AmBF3-PEG7-Tyr^3-Octreotide in an AR42J Pancreatic Carcinoma Model” (Bioconjugate Chemistry, 2022)
